Legend:
Format in all cases: in vivo
[1] = tested on: ORYSA=Orysa sativa, Rice; assay: In-water applied herbicides and safeners in transplanted paddy rice, visual injury; conditions: in-water
Description: Weed seeds or nutlets of the desired test plant species were planted in puddled soil (mud) prepared by mixing a shredded, non-sterilized mineral soil (50.5 percent silt, 25.5 percent clay, and 24 percent sand, with a pH of about 7.6 and an organic matter content of about 2.9 percent) and water at a 1:1 volumetric ratio. The prepared mud was dispensed in 365 mL aliquots into 16-ounce (oz.) non-perforated plastic pots with a surface area of 86.59 square centimeters (cm^2) leaving a headspace of 3 centimeters (cm) in each pot. Rice seeds were planted in Sun Gro MetroMix® 306 planting mixture, which typically has a pH of 6.0 to 6.8 and an organic matter content of about 30 percent, in plastic plug trays. Seedlings at the second or third leaf stage of growth were transplanted into 860 mL of mud contained in 32-oz. non-perforated plastic pots with a surface area of 86.59 cm^2 4 days prior to herbicide application. The paddy was created by filling the headspace of the pots with 2.5 to 3 cm of water. When required to ensure good germination and healthy plants, a fungicide treatment and/or other chemical or physical treatment was applied. The plants were grown for 4-22 days in a greenhouse with an approximate 14 h photoperiod which was maintained at about 29′C during the day and about 26° C. during the night. Nutrients were added as Osmocote® (17:6:10, N:P:K+minor nutrients) at 2 g per 16-oz. pot and 4 g per 32-oz. pot. Water was added on a regular basis to maintain the paddy flood, and supplemental lighting was provided with overhead metal halide 1000-Watt lamps as necessary. The plants were employed for testing when they reached the second or third true leaf stage.
(§1) Treatments consisted of the acid or esters of 4-amino-3-chloro-5-fluoro-6-(4-chloro-2-fluoro-3-methoxy-phenyl)pyridine-2-carboxylic acid (compound A) and various safeners alone and in combination. Forms of compound A were applied on an acid equivalent basis. Safener components were applied on an active ingredient or acid equivalent basis depending on the compound.
Treatment requirements for each compound or herbicidal component were calculated based upon the rates being tested, the concentration of active ingredient or acid equivalent in the formulation, an application volume of 2 mL per component per pot, and an application area of 86.59 cm^2 per pot.
For formulated compounds, a measured amount was placed in an individual 100 or 200 mL glass vial and was dissolved in a volume of 1.25% (v/v) Agri-Dex® crop oil concentrate to obtain application solutions.
For technical grade compounds, a weighed amount can be placed in an individual 100 to 200 mL glass vial and dissolved in a volume of acetone to obtain concentrated stock solutions. […] The concentrated stock solutions obtained can be diluted with an equivalent volume of an aqueous mixture containing 2.5% (v/v) crop oil concentrate so that the final application solutions contain 1.25% (v/v) crop oil concentrate.
Applications were made by injecting with a pipetter appropriate amounts of the application solutions, individually and sequentially, into the aqueous layer of the paddy. Control plants were treated in the same manner with the solvent blank. Applications were made so that all treated plant material received the same concentrations of acetone and crop oil concentrate.
The treated plants and control plants were placed in a greenhouse as described above and water was added as needed to maintain a paddy flood. After approximately 3 weeks the condition of the test plants as compared with that of the untreated plants was determined visually and scored on a scale of 0 to 100 percent where 0 corresponds to no injury or growth inhibition and 100 corresponds to complete kill.
Colby's equation was used to determine the herbicidal effects expected from the mixtures (Colby, S. R. 1967. Calculation of the synergistic and antagonistic response of herbicide combinations. Weeds 15:20-22.). […]

[2] = tested on: ORYSA=Orysa sativa, Rice; assay: Postemergence foliar-applied herbicides and safeners in direct-seeded rice, visual injury; conditions: foliar; for Visual Injury (%) - 21 DAA ORYSA-‘Clearfield 171’ Obs / Visual Injury (%) - 21 DAA ORYSA-‘Neptune’ Obs / Visual Injury (%) - 21 DAA ORYSA-‘Wells’ Obs: Tables 1,2,7,8
From the text: (§2) Seeds or nutlets of the desired test plant species were planted in a soil matrix prepared by mixing a loam or sandy loam soil (e.g., 28.6 percent silt, 18.8 percent clay, and 52.6 percent sand, with a pH of about 5.8 and an organic matter content of about 1.8 percent) and calcareous grit in an 80 to 20 ratio. The soil matrix was contained in plastic pots with a surface area of 84.6 square centimeters (cm^2). When required to ensure good germination and healthy plants, a fungicide treatment and/or other chemical or physical treatment was applied. The plants were grown for 8-22 days in a greenhouse with an approximate 14 hr photoperiod which was maintained at about 29° C. during the day and 26° C. during the night. Nutrients (Peters Excel 15-5-15 5-Ca 2-Mg and iron chelate) were applied in the irrigation solution as needed and water was added on a regular basis. Supplemental lighting was provided with overhead metal halide 1000-Watt lamps as necessary. The plants were employed for testing when they reached the second or third true leaf stage.
as §1, with “safener components” for “safeners”
(§3) Treatment requirements were calculated based upon the rates being tested, the concentration of active ingredient or acid equivalent in the formulation, and a 12 mL application volume at a rate of 187 L/ha.
(§4) For treatments comprised of formulated compounds, measured amounts of compounds were placed individually in 25 mL glass vials and diluted in a volume of 1.25% (v/v) Agri-dex crop oil concentrated to obtain 12× stock solutions. […] Application solutions were prepared by adding an appropriate amount of each stock solution (e.g., 1 mL) and diluted to the appropriate final concentrations with the addition of 10 mL of an aqueous mixture of 1.25% (v/v) Agri-dex crop oil concentrate so that the final spray solutions contained 1.25% (v/v) Agri-dex crop oil concentrate.
(§5) For treatments comprised of technical compounds, weighed amounts were placed individually in 25 mL glass vials and dissolved in a volume of 97:3 v/v acetone/DMSO to obtain 12× stock solutions. […] Application solutions were prepared by adding an appropriate amount of each stock solution (e.g., 1 mL) and diluted to the appropriate final concentrations with the addition of 10 mL of an aqueous mixture of 1.5% (v/v) Agri-dex crop oil concentrate so that the final spray solutions contained 1.25% (v/v) Agri-dex crop oil concentrate. When technical materials were used, the concentrated stock solutions were added to the spray solutions so that the final acetone and DMSO concentrations of the application solutions were […], respectively.
(§6) For treatments comprised of formulated and technical compounds, weighed amounts of the technical materials were placed individually in 25 mL glass vials and dissolved in a volume of 97:3 v/v acetone/DMSO to obtain 12× stock solutions, and measured amounts of the formulated compounds were placed individually in 25 mL glass vials and diluted in a volume of 1.5% (v/v) Agri-dex crop oil concentrate or water to obtain 12× stock solutions. […] Application solutions were prepared by adding an appropriate amount of each stock solution (e.g., 1 mL) and diluted to the appropriate final concentrations with the addition of an appropriate amount of an aqueous mixture of 1.5% (v/v) Agri-dex crop oil concentrate so that the final spray solutions contained 1.25% (v/v) Agri-dex crop oil concentrate. When required, additional water and/or 97:3 v/v acetone/DMSO was added to individual application solutions so that the final acetone and DMSO concentrations of the application solutions being compared were 8.1% and 0.25%, respectively. […]

[3] = tested on: ECHCG=Echinochloa crus-galli; assay: Postemergence foliar-applied herbicides and safeners, visual injury of weed; conditions: Echinochloa crus-galli, foliar, 480 h, read-out: Visual Injury (%) - 20 DAA ECHCG Obs, foliar; Compound A form 140 g ae/ha alone; trial of Tables 5,9,11,13
From the text: as §2
as §1, with “safener components” for “safeners”
as §3, §4, §5, §6

## CCOC(=O)C1=NOC(c2ccccc2)(c2ccccc2)C1 [Isoxadifen-ethyl, ethyl 4,5-dihydro-5,5-diphenyl-3-isoxazole-carboxylate]
[1]; safener 140 g ai/ha alone
  Visual Injury (%) - 21 DAA ORYSA - ‘M202’ Obs: 0%
[1]; safener 280 g ai/ha alone
  Visual Injury (%) - 21 DAA ORYSA - ‘M202’ Obs: 0%
[1]; safener 560 g ai/ha alone
  Visual Injury (%) - 21 DAA ORYSA - ‘M202’ Obs: 0%
[2]; safener 70 g ai/ha alone
  Visual Injury (%) - 21 DAA ORYSA-‘Clearfield 171’ Obs: 0%
  Visual Injury (%) - 21 DAA ORYSA-‘Neptune’ Obs: 0%
  Visual Injury (%) - 21 DAA ORYSA-‘Wells’ Obs: 0%
[2]; safener 140 g ai/ha alone
  Visual Injury (%) - 21 DAA ORYSA-‘Clearfield 171’ Obs: 0%
  Visual Injury (%) - 21 DAA ORYSA-‘Neptune’ Obs: 0%
  Visual Injury (%) - 21 DAA ORYSA-‘Wells’ Obs: 0%
[2]; safener 280 g ai/ha alone
  Visual Injury (%) - 21 DAA ORYSA-‘Neptune’ Obs: 0%
  Visual Injury (%) - 21 DAA ORYSA-‘Wells’ Obs: 0%

## COC(=O)c1nc(-c2ccc(Cl)c(OC)c2F)c(F)c(N)c1Cl [Methyl]
[3]
  pest or weed control at 140 g/ha: 98%
[1]; Compound A form 140 g ae/ha alone
  Visual Injury (%) - 21 DAA ORYSA - ‘M202’ Obs: 17.5%
[2]; Oryza sativa, 480 h, read-out: Visual Injury (%) - 20 DAA ORYSA-‘Clearfield 171’ Obs, foliar, Compound A form 140 g ae/ha alone, trial of Tables 5,9,11,13
  Visual crop injury (%) at 140 g/ha: 12%
